This passage reports inhibition results from paper PMC6934184, “Selective DNA-PKcs inhibition extends the therapeutic index of localized radiotherapy and chemotherapy” (The Journal of Clinical Investigation, 2019).

This assay deals with T1, MAP2K6 (MKK6) S207E T211E (Homo sapiens, UniProt P52564, S207E/T211E).
T1 construct: purchased Thermo Fisher Scientific (Life Technologies) SelectScreen
Put plainly: SelectScreen LanthaScreen. Format: binding. The conditions noted are these: read-out: % displacement. In outline:
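SelectScreen broad panel; activity (Z'LYTE, Adapta) plus binding formats. ATP: Km app for CSF1R Z'LYTE; 10 for CAMK1 Adapta. Readout = % per kinase.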

T1 sequence (P52564 whole entry S207E/T211E): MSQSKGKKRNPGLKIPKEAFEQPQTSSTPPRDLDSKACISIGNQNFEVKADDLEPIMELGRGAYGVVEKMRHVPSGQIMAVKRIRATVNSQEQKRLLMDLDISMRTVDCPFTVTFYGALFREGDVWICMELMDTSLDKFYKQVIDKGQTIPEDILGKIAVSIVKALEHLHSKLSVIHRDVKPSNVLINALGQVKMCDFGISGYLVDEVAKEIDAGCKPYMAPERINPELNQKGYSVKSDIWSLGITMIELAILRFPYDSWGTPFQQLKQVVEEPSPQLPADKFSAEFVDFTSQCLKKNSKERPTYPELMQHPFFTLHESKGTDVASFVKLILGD

For `CN(C(=O)CN1CCOCC1)c1ccc2sc3c(-c4cccc5c(=O)cc(N6CC7CCC(C6)O7)oc45)cccc3c2c1` [NU5455], the inhibition at 1 µM was -4.9%.
